Measurements reported in article PMC4774911, “Biochemical Screening of Five Protein Kinases from Plasmodium falciparum against 14,000 Cell-Active Compounds” (PLoS ONE, 2016).
“And” between values parts separate entries of the source, which are not always exact repeats. Identical values can stand only once.

Assays:
Experiment in all cases: biochemical
Design in all cases: endogenous in cells; host or cells: K562 cell extract; species or system K562 (extract); replicate k of n = 2 (each experiment ID is one independent experiment; two experiment IDs per compound)
Conditions in all cases: read-out: KDapp
[1] = molecular target: T1, STK17A (Homo sapiens, UniProt Q9UEE5)
T1 sequence (Q9UEE5 1-414): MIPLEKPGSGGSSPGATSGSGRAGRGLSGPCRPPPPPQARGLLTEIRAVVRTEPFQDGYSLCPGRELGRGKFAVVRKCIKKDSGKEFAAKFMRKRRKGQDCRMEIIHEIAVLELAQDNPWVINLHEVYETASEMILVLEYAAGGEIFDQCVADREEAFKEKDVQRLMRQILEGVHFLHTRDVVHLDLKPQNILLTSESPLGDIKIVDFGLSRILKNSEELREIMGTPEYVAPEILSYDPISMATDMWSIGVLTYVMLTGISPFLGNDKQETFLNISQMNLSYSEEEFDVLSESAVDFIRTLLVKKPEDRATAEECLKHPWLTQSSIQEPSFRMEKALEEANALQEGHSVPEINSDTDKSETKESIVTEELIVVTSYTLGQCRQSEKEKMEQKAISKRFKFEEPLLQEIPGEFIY

[2] = molecular target: CRKRS (Homo sapiens, UniProt Q9NYV4)
[3] = molecular target: PTK2B (Homo sapiens, UniProt Q14289)
[4] = molecular target: WEE1 (Homo sapiens, UniProt P30291)
[5] = molecular target: T2, PIP4K2A (Homo sapiens, UniProt P48426)
T2 sequence (P48426 1-406): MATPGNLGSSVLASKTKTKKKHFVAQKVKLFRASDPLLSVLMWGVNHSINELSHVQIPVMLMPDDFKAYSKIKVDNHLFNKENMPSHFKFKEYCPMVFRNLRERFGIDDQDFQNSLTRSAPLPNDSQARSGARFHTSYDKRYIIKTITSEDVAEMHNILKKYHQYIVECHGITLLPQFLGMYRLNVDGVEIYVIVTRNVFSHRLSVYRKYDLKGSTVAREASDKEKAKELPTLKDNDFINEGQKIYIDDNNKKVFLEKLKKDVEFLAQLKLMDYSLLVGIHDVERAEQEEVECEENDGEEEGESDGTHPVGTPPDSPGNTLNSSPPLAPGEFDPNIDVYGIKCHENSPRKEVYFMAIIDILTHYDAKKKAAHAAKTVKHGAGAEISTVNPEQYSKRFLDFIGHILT

[6] = molecular target: MARK3 (Homo sapiens, UniProt P27448)
[7] = molecular target: MAP2K1 (Homo sapiens, UniProt Q02750)
[8] = molecular target: MAPK9 (Homo sapiens, UniProt P45984)
[9] = molecular target: PRKCB (Homo sapiens, UniProt P05771)
[10] = molecular target: BRAF (Homo sapiens, UniProt P15056)
[11] = molecular target: T3, ACVR1B (Homo sapiens, UniProt P36896)
T3 sequence (P36896 1-505): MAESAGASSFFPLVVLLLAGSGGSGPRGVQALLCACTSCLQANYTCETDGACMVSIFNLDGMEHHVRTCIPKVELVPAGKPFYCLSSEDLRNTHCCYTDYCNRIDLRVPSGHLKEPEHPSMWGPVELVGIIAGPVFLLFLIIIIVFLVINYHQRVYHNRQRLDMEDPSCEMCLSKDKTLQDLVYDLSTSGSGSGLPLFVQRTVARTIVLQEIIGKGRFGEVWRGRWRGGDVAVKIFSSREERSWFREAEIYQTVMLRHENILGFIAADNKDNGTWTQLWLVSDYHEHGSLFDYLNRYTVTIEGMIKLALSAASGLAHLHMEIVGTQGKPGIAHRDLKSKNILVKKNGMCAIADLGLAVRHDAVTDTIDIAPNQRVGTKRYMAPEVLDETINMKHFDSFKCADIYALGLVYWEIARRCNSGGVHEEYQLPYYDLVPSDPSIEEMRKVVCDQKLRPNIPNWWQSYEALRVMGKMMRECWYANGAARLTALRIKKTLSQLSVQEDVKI

PRKCB, sequence (P05771 whole entry): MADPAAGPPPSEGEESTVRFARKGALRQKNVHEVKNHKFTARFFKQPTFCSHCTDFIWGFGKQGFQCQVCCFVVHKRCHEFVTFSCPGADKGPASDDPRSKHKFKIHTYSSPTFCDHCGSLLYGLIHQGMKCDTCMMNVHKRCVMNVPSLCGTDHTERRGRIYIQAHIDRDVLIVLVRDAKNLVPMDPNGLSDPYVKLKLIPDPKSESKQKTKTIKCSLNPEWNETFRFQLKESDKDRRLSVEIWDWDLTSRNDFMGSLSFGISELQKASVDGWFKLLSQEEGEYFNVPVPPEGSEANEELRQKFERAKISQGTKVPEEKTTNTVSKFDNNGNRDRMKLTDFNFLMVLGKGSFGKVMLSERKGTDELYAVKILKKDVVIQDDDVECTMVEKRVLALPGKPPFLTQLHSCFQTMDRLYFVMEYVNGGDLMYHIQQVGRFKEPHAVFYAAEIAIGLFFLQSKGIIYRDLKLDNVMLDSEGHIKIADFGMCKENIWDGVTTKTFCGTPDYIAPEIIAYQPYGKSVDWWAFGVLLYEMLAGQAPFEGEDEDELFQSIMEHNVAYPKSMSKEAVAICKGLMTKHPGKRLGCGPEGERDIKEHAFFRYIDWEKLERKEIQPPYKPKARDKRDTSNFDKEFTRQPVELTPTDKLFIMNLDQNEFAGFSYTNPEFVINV
PTK2B, sequence (Q14289 whole entry): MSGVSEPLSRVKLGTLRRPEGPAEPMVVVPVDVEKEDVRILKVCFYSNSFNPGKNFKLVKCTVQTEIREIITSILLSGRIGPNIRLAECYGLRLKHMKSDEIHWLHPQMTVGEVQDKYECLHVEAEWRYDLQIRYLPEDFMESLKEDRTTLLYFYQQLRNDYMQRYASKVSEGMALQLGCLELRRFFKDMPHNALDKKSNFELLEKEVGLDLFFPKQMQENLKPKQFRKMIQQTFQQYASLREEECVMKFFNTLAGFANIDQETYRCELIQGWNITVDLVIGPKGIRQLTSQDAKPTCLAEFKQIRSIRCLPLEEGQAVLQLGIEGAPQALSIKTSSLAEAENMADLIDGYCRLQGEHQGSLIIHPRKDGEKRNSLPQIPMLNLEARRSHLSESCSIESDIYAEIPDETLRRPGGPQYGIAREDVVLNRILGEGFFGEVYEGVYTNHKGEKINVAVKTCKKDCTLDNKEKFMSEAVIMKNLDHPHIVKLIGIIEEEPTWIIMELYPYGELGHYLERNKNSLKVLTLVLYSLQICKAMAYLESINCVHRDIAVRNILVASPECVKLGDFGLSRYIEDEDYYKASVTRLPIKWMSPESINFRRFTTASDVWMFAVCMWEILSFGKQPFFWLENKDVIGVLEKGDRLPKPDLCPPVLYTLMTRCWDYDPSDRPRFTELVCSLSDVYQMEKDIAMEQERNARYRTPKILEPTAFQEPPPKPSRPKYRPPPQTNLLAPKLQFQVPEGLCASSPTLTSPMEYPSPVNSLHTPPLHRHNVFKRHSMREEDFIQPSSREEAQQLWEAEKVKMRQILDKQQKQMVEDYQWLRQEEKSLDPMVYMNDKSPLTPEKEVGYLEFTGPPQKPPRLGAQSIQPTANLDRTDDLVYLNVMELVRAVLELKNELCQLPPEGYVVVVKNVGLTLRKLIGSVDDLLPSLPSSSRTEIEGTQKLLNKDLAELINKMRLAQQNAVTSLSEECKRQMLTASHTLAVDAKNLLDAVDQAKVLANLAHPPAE
MARK3, sequence (P27448 whole entry): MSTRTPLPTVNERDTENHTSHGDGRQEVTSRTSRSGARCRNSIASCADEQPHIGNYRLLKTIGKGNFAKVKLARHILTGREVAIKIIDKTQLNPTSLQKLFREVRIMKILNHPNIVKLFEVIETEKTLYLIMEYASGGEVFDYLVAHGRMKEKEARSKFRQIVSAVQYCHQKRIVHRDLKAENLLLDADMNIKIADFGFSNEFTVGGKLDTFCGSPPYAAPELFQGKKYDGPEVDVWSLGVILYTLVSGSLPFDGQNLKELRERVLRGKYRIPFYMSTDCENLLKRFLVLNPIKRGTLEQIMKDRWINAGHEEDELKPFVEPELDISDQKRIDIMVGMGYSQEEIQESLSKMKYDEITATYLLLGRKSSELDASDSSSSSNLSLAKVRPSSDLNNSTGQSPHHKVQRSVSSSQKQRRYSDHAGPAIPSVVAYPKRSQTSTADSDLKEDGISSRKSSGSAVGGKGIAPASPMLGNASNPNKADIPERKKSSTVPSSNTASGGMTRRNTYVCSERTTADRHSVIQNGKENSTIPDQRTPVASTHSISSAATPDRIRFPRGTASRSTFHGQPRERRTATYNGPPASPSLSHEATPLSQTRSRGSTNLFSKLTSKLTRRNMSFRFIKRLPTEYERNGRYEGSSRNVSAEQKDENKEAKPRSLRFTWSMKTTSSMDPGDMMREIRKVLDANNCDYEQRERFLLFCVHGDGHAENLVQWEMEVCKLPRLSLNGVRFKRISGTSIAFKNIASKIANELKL
MAP2K1, sequence (Q02750 whole entry): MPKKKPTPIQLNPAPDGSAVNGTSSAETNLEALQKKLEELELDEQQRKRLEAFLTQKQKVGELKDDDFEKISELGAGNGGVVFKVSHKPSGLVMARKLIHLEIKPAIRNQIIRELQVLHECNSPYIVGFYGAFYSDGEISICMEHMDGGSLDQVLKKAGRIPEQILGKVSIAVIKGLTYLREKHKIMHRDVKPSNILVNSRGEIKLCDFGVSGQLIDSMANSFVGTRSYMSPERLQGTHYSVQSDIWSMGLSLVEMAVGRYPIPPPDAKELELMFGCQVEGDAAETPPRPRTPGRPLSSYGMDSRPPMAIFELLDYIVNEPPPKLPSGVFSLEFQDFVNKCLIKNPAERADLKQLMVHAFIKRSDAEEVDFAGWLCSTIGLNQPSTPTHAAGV
BRAF, sequence (P15056 whole entry): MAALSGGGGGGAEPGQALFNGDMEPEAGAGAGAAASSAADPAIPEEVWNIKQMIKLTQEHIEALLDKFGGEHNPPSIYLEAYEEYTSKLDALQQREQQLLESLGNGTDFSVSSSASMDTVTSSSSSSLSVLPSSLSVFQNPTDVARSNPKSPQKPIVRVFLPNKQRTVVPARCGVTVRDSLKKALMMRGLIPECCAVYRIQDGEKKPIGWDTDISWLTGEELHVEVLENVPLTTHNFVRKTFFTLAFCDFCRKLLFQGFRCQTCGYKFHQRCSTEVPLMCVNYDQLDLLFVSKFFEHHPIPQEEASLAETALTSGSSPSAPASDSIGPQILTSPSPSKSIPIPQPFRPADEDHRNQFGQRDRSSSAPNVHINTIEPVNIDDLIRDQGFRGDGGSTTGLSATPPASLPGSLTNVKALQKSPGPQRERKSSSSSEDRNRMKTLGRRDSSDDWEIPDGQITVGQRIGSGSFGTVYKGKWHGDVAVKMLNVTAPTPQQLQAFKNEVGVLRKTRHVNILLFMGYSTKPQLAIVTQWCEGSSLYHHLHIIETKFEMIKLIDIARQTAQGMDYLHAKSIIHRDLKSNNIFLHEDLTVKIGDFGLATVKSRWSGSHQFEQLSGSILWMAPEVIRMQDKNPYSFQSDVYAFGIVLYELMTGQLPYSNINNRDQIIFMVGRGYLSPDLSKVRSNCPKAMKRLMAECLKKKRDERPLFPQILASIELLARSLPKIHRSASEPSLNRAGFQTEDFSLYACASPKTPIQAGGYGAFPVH
WEE1, sequence (P30291 whole entry): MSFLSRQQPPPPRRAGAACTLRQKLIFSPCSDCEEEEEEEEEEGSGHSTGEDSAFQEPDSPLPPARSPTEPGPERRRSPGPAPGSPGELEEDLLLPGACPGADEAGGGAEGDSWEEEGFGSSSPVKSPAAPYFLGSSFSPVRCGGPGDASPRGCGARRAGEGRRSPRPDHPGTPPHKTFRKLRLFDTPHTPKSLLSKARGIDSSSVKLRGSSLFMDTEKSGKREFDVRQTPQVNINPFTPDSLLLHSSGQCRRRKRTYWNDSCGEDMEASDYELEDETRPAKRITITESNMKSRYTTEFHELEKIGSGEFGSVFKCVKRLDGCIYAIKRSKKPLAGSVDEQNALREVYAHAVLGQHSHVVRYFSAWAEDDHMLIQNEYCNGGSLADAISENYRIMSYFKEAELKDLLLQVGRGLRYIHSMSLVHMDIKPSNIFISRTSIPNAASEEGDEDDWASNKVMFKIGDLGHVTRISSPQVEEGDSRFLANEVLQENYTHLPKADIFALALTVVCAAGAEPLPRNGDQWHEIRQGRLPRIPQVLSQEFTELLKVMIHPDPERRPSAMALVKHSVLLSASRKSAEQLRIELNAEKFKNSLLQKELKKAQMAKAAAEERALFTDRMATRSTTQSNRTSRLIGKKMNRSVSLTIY
MAPK9, sequence (P45984 whole entry): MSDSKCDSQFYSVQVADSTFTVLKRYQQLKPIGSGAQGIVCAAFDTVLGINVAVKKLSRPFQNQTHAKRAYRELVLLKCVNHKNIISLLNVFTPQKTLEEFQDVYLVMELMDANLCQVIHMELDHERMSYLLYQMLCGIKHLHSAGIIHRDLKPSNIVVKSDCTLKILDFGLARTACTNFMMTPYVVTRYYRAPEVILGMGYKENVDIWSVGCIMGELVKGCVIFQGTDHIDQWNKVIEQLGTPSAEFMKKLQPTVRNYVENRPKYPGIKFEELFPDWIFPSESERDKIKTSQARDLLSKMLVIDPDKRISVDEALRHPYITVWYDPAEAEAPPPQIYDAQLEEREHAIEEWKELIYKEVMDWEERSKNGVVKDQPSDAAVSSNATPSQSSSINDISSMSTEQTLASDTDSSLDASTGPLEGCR

## CN(C)CC(O)COc1ccc(Nc2ncc([N+](=O)[O-])c(Nc3ccccc3O)n2)cc1.O=C(O)C(F)(F)F (stereo not shown) [TCMDC-141399]
[1]
  Kd: 2550 nM
[2]
  Kd: 1640 nM
[3]
  Kd: 128 nM and 175 nM
[4]
  Kd: 209 nM
[5]
  Kd: 846 nM and 669 nM
[6]
  Kd: 5550 nM and 3660 nM

## Cl.NCC1(c2nc(-c3ccc(Cl)c(O)c3)c(-c3ccncc3)[nH]2)CCCCC1 [TCMDC-141154]
[7]
  Kd: 8760 nM
[8]
  Kd: 355 nM
[9]
  Kd: 5660 nM and 2780 nM
[10]
  Kd: 861 nM and 705 nM
[11]
  Kd: 240 nM

## CN1CCN(c2ccc(Nc3ncc(C#N)c(Nc4ccccc4C(N)=O)n3)cc2)CC1.Cl [TCMDC-134116]
[7]
  Kd: 1630 nM and 1450 nM
[1]
  Kd: 109 nM
[2]
  Kd: 507 nM
[3]
  Kd: 28.1 nM and 35.3 nM
[8]
  Kd: 230 nM and 209 nM
[4]
  Kd: 17.3 nM and 16.9 nM
[9]
  Kd: 410 nM
[5]
  Kd: 775 nM and 987 nM
[10]
  Kd: 1570 nM
[11]
  Kd: 1630 nM
[6]
  Kd: 66.6 nM and 77.7 nM
